Experimental data published in publication PMC2776349, “Asymmetric Deactivation of HIV-1 gp41 following Fusion Inhibitor Binding” (PLoS Pathogens, 2009).
Ends that are not written are not given here.

Legend:
HIV-1HXB2 (gp41) = settings: 1HXB2 (gp41, 48 h)
[1] = test system: EnvG547D/I548T and EnvV549E; format: cell-based; settings: versus wild type Env
[2] = biological target: fluorescein-labeled 5-Helix (Human immunodeficiency virus type 1 group M subtype B, UniProt P04578, C598G/DEL582-596/DEL601-623/N624G); format: binding, HIV-1HXB2
HIV-1HXB2 = format: cell-based; settings: low (HOS-CD4-CCR5) versus high (HOS-CD4-CXCR4) CXCR4, HIV-1HXB2
HIV-1 = settings: compared with wild type C37; ref KMK and MJR, manuscript in preparation; cited from earlier work

Row | Sequence | IC50 (HIV-1HXB2 (gp41)) [nM] | other results
1 | GGHTTDMEWDREINNYTSLAHSLIEESQNQQEKNEQELLGHHHHHH [W628D/I642A] | 65 ± 9.8 | 
2 | GGHTTWMEWDREINNYTSLIHSLIEESQNQQEKNEQALLGHHHHHH [Variant E659A] | 1.2 ± 0.13 | 
3 | GGHTTWMEWDREINNYTSLIHSLIEESQNQQEKAEQELLGHHHHHH [Variant N656A] | 30 ± 4.2 | 
4 | GGHTTWMEWDREINNYTSLIHSAIEESQNQQEKNEQELLGHHHHHH [Variant L645A] | 3.9 ± 0.7 | 
5 | GGHTTWMEWDREINKYTSLIHSLIEESQNQQEKNEQELLGHHHHHH [N637K (KYT)] | 1.65 ± 0.05 | 
6 | GGHTTWMEWDREINNYISLIHSLIEESQNQQEKNEQELLGHHHHHH [T639I (NYI)] | 1.7 ± 0.1 | 
7 | GGHTTWMEWDREANNYTSLIHSLIEESQNQQEKNEQELLGHHHHHH [Variant I635A] | 5.7 ± 1.6 | 
8 | GGHTTWMEWDREINNYTSLIHSLIEESQNDQEKNEQELLGHHHHHH [Variant Q652D] | 53 ± 0.98 | 
9 | GGHTTWMEWDREINNYTSLAHSLIEESQNQQEKNEQELLGHHHHHH [Variant I642A] | 7 ± 1.5 | 
10 | GGHTTWMEWDREINNYTSLDHSLIEESQNQQEKNEQELLGHHHHHH [Variant I642D] | 13000 ± 2100 | 
11 | GGHTTWMEWDREINNYTSLIHSLIEEDQNQQEKNEQELLGHHHHHH [Variant S649D] | 2300 ± 170 | 
12 | GGHTTWMEWDREINNYTSLIHSLIEESQNQQEKDEQELLGHHHHHH [Variant N656D] | 100 ± 8.9 | 
13 | GGHTTWMEWDREINNYTSLIHSLIEESQNAQEKNEQELLGHHHHHH [Variant Q652A] | 3.5 ± 0.81 | 
14 | GGHTTWMEWDREINKYISLIHSLIEESQNQQEKNEQELLGHHHHHH [N637K/T639I (KYI)] | 0.96 ± 0.1 | impact of G547D/I548T and V549E substitutions on potency [1]: minimal impact; kon [2]: 2.4±0.1 x10^7 M-1s-1; τoff (time constant for dissociation) ([2]; C37 variants, reciprocal of koff): 11000 min; increase in potency on lowering CXCR4 levels (HIV-1HXB2): 3.5 fold; resistance development (HIV-1): takes much longer to achieve and requires more escape mutations than resistance to wild type C37
15 | GGHTTWMEWDREDNNYTSLIHSLIEESQNQQEKNEQELLGHHHHHH [Variant I635D] | 3100 ± 350 | 
16 | GGHTTWMEWDREINNYTSLIHSLIEEAQNQQEKNEQELLGHHHHHH [Variant S649A] | 1.6 ± 0.41 | 
17 | GGHTTWMEWDREINNYTSLIHSDIEESQNQQEKNEQELLGHHHHHH [Variant L645D] | 630 ± 120 | 
18 | GGHTTDMEWDREANNYTSLIHSLIEESQNQQEKNEQELLGHHHHHH [W628D/I635A] | 97 ± 8.4 | 
